Here are results for six molecules from patent US5614370A, “Assay to identify human C5a antagonists and agonists” (Merck & Co., Inc., priority 1994, dated 1997).

Entries after “also recorded” stand apart in the source; their conditions may differ. Non-standard residues stand in square brackets, D forms with d. Residues, ends and D or L forms follow the SMILES beside them. 1Nal = N[C@@H](Cc1cccc2ccccc12)C(=O)O; NMeF = CN[C@@H](Cc1ccccc1)C(=O)O; Cha = N[C@@H](CC1CCCCC1)C(=O)O; dCha = N[C@H](CC1CCCCC1)C(=O)O

The target of one series is T1, C5a receptor (Homo sapiens, UniProt P21730).
T1 construct: followed by a 20 μL aliquot of neutrophil membrane; endogenous in cells
T1 sequence (P21730 1-350): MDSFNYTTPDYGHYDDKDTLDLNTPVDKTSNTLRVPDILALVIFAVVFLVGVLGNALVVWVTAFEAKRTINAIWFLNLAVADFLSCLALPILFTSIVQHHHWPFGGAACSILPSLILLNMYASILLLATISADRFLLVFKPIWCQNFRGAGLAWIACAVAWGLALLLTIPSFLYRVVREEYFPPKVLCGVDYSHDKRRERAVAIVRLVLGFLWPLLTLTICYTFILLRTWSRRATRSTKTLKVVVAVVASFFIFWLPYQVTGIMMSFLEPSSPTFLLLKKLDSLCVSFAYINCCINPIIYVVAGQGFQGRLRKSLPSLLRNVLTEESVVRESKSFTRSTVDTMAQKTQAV
Nature of the series: Agonist activity over all C5a induced responses (chemotaxis, MPO release, calcium flux, GTPase activity, GTPγ-S binding). It counts as cell-based. Particulars: C089 tested up to and including 100 μM. The procedure: The EC50 measures the concentration of compound at which a 50% maximal stimulation of a given biological response induced by C5a is achieved (chemotaxis, MPO release, calcium flux, GTPase activity or GTPγ-S binding), and the IC50 is the concentration at which 50% maximal inhibition of C5a binding is achieved.
This assay was performed on human neutrophils as previously reported and it is a measure of C5a or peptide induced exocytosis (Rollins, T. E. and Springer, M. S. (1985) J. Biol. Chem. 260, 7157-7160).
Ligand induced Ca^2+ fluxes were measured by following the change in Indo-1 induced fluorescence on a FACS analyzer as previously described (Van Riper, G., Siciliano, S. J., Fischer, P. A., Meurer, R., Springer, M. S. and Rosen, H. (1993) J. Exp. Med. 177, 851-856.).
This assay is a modification of the procedure described by Sims et. al. (Sims, T. J., Geissler, F. T. and Page, R. C. (1985) J. lmmunol. Meth. 78, 279-291 ). Chemotaxis was assayed in a 48 well Neuro Probe chamber (Neuro Probe, Bethesda, MD) using ^51 Cr-labelled cells. […] After preforming a gradient for 30 minutes at 37° C., 2×10^5 labelled cells were added to the upper chamber and allowed to migrate at 37° C. for one hour. The upper two polycarbonate filters were then discarded and the formed wells cut from the nitrocellulose membrane. The radioactivity present in these filters is a measure of the number of cells that migrated through both polycarbonate filters.
(§1) The method of Kupper et al. (Kupper, R. W., Dewald, B., Jakobs, K. H., Baggiolini, M. and Gierschik, P. (1992) Biochem. J. 282, 429-434) was adapted for use in microtiter plates. Neutrophil membranes were suspended in 50 mM triethanolamine-HCl, 5 mM MES, pH 7.3, containing 1 mM EDTA, 5 mM MgCl2, 143 mM NaCl, 0.16 % BSA, 1 mM ouabain, 1 mM AMP-PNP, 0.5 mM ATP, 2.5 U/mL creatine phosphokinase,. 10 mM creatine phosphate, 0.1 mM PMSF and 10 ng/mL each of leupeptin, aprotinin and chymostatin. 50 μL of membranes containing 1-5 μg protein were added to 50 μL of the same buffer containing the test agent and 0.25 μM [γ-^32 P]-GTP (2,000 cpm/pmol) in the wells of a U-shaped microtiter plate. After incubation for 15-30 rain at 29° C., 100 μL of a 10% (w/v) charcoal suspension in 100 mM H3 PO4 was added and plates were centrifuged at 2000 rpm for 5 min. 100 μL of the supernatant was transferred to an Optiplate microtiter plate and 100 μL of Microscint-40 scintillation cocktail was added. Plates were counted in a Packard TopCount microtiter plate counter.
(Calcium flux is commonly read through the fluorescence of an indicator in the cells.)

For the next series, the system named is human neutrophils. Nature of the series: Chemotaxis, Boyden Chamber assay. Type of series: cell-based. Particulars: FIG. 6A. The procedure:
(§2) FIG. 6A and 6B. Chemotaxis and G protein activation elicited by the hexapeptides.
This assay is a modification of the procedure described by Sims et. al. (Sims, T. J., Geissler, F. T. and Page, R. C. (1985) J. lmmunol. Meth. 78, 279-291 ). Chemotaxis was assayed in a 48 well Neuro Probe chamber (Neuro Probe, Bethesda, MD) using ^51 Cr-labelled cells. Varying concentrations of C5a or peptide were placed in the lower chamber which was successively covered by a 100 μm nitrocellulose membrane (Neuro Probe, Bethesda, Md.) and two 3 μm polycarbonate filters. After preforming a gradient for 30 minutes at 37° C., 2×10^5 labelled cells were added to the upper chamber and allowed to migrate at 37° C. for one hour. The upper two polycarbonate filters were then discarded and the formed wells cut from the nitrocellulose membrane. The radioactivity present in these filters is a measure of the number of cells that migrated through both polycarbonate filters.
A plot of the initial concentration of agent placed in the lower chamber against the number of cells which migrate (measured by counting the ^51 Cr-labelled cells) is shown in FIG. 6A. For C5a, maximal response occurs at 10 nM. Since the cells migrate in response to the concentration gradient established across the filters, the actual stimulatory concentration is much lower than the nominal value plotted on the abcissa in FIG. 6A.

Series [1] concerns human neutrophil membranes. Nature of the series: GTPase activity in neutrophil membranes (G protein activation). Type of series: biochemical.
Description: as §2
Since C5a evokes such a plethora of biological responses, it is difficult to ascertain a molecule's overall functional properties from any subset of responses. […] An alternative to investigating all of the responses generated by the C5a receptor, is to determine a molecule's ability to stimulate G protein activation. Such a measurement should give an integrated view of a molecule's agonist properties. As a measure of G protein activation we have investigated the peptides' abilities to stimulate GTPase activity in human neutrophil membranes:
as §1

The mark [2] stands for this setting: nominal initial concentration in lower chamber.

As to `CC(C)C[C@H](NC(=O)[C@H](CC1CCCCC1)NC(=O)[C@H](CC1CCCCC1)NC(=O)[C@H](C)NC(=O)[C@H](CCCCN)NC(=O)[C@H](Cc1ccccc1)NC(=O)[C@@H](N)Cc1ccc(O)cc1)C(=O)N[C@H](Cc1ccccc1)C(=O)N[C@@H](CCCNC(=N)N)C(=O)O` [C009, Tyr Phe Lys Ala Cha Cha Leu dPhe Arg] (H-YFKA[Cha][Cha]L[dF]R-OH), the “agonist activity in words, all responses” value on C5a receptor is “C5a agonist”.

Turning to `CN[C@@H](Cc1ccccc1)C(=O)N[C@@H](CCCCN)C(=O)N1CCC[C@H]1C(=O)N[C@H](CC1CCCCC1)C(=O)N[C@@H](Cc1ccccc1)C(=O)N[C@H](CCCNC(=N)N)C(=O)O` [C026, NMeF--K--P-dCha-F-dR] (H-[NMeF]KP[dCha]F[dR]-OH), in the series on human neutrophils, the “chemotactic response in words” value is “full agonist in chemotaxis; also recorded: strong chemoattractants; also recorded: as chemotactic as C028”. For the same molecule, the “concentration of maximal chemotactic response (maximal migration)” value (from here on “concentration … (maximal migration)”) in the series on human neutrophils (setting [2]) was determined as 1 µM. In series [1] (FIG. 6B), the “stimulation of GTPase activity / G protein activation in words” value is on record as “full agonist in chemotaxis or C5a receptor-linked G-protein activation; also recorded: somewhat reduced ability to stimulate the GTP hydrolysis”.

On to `CN[C@@H](Cc1ccccc1)C(=O)N[C@@H](CCCCN)C(=O)N1CCC[C@H]1C(=O)N[C@H](CC1CCCCC1)C(=O)N[C@@H](CC1CCCCC1)C(=O)N[C@H](CCCNC(=N)N)C(=O)O` [C028, MePhe Lys Pro dCha Cha dArg] (H-[NMeF]KP[dCha][Cha][dR]-OH), for which the “chemotactic response in words” value in the series on human neutrophils was “strong chemoattractants”. The “concentration … (maximal migration)” value in the series on human neutrophils (setting [2]) is 1 µM. In series [1] (FIG. 6B), the “stimulation of GTPase activity / G protein activation in words” value is reported as “stimulates as much GTPase activity as does C5a”. Also, in series [1] (FIG. 6B, read-out: ED50 for stimulation of GTPase activity), the EC50 is 100 nM. Further, on C5a receptor, the “agonist activity in words, all responses” value is on record as “almost complete agonists of all of these responses”.

Take `CN[C@@H](Cc1ccccc1)C(=O)N[C@@H](CCCCN)C(=O)N1CCC[C@H]1C(=O)N[C@H](CC1CCCCC1)C(=O)N[C@@H](Cc1cccc2ccccc12)C(=O)N[C@H](CCCNC(=N)N)C(=O)O` [C061] (H-[NMeF]KP[dCha][1Nal][dR]-OH): the “chemotactic response in words” value in the series with human neutrophils is recorded as “good chemotactic activity; also recorded: elicits as great an accumulation of cells as either C026, or C028, or for that matter, C5a”. For the same molecule, the “concentration … (maximal migration)” value in the series on human neutrophils (setting [2]) is listed as “about 100 μM”. For the same molecule, the “stimulation of GTPase activity / G protein activation in words” value in series [1] (FIG. 6B) is reported as “significantly lower GTPase activity”.

In the case of `CN[C@@H](Cc1ccccc1)C(=O)N[C@@H](CCCCN)C(=O)N1CCC[C@H]1C(=O)N[C@H](CC1CCCCC1)C(=O)N[C@@H](Cc1c[nH]c2ccccc12)C(=O)N[C@H](CCCNC(=N)N)C(=O)O` [C089], the “chemotactic response in words” value in the series with human neutrophils is given as “little or no ability to stimulate a chemotactic response”. The “stimulation of GTPase activity / G protein activation in words” value in series [1] (FIG. 6B) is reported as “does not stimulate G protein activation; also recorded: fails entirely to stimulate GTP hydrolysis”. The “agonist activity in words, all responses” value at C5a receptor is listed as “without agonist activity in any of the assays; also recorded: do not induce a response; also recorded: completely devoid of agonist activity”.

B1: C5a: 74 amino acid protein derived from the fifth component of serum complement during complement activation (protein, UniProt P01031 678-751, looked up)
C5a anaphylatoxin: TLQKKIEEIAAKYKHSVVKKCCYDGACVNNDETCEQRAARISLGPRCIKAFTECCVVASQLRANISHKDMQLGR
modifications: C5a anaphylatoxin
Regarding B1, the “concentration of maximal chemotactic response” value in the series with human neutrophils (setting [2]) turned out to be 10 nM. This molecule also came in with a GTPase activity in series [1] (3 nM C5a, absence of C089, raised from 46) of 64 pmol/min/mg protein.
